# Like-named read-outs stand apart in the source and are kept apart here.
# Legend:
# [1] = tested on: grape downy mildew fungus; test: Test Example 9: grape downy mildew, foliage application then inoculation; conditions: grape seedling
# Description: (§1) Each of plastic pots was filled with sandy loam and sown with grape (Berry A), followed by growing in a greenhouse for 40 days. […] Then, the young seedling was inoculated with a suspension of zoosporangia of grape downy mildew fungus by spraying. After the inoculation, the young seedling was allowed to stand overnight at 23° C. and a high humidity and then grown in a greenhouse for 7 days, after which the infection rate (%) was investigated.
# [2] = tested on: gray mold fungi sensitive to benzimidazole type fungicidal compounds; test: Test Example 12: cucumber gray mold, benzimidazole-sensitive fungus; conditions: cucumber seedling
# Description: Each of plastic pots was filled with sandy loam and sown with cucumber (Sagamihanjiro), followed by growing in a greenhouse for 14 days. A wettable powder of test agents prepared according to Formulation Example 41 was diluted to a predetermined concentration with water, and foliage application of the dilution was carried out so as to adhere the dilution sufficiently to the surfaces of leaves of the grown cucumber young seedling. After air-drying, each of gray mold fungi sensitive and tolerant, respectively, to benzimidazole type fungicidal compounds was inoculated on the surfaces of leaves of the young seedling, and the young seedling was grown in the dark at 10° C. and a high humidity for 4 days, after which the infection rate (%) was investigated.
# [3] = tested on: gray mold fungi tolerant to benzimidazole type fungicidal compounds; test: Test Example 12: cucumber gray mold, benzimidazole-tolerant (resistant) fungus; conditions: cucumber seedling
# Description: Each of plastic pots was filled with sandy loam and sown with cucumber (Sagamihanjiro), followed by growing in a greenhouse for 14 days. […] After air-drying, each of gray mold fungi sensitive and tolerant, respectively, to benzimidazole type fungicidal compounds was inoculated on the surfaces of leaves of the young seedling, and the young seedling was grown in the dark at 10° C. and a high humidity for 4 days, after which the infection rate (%) was investigated.
# [4] = tested on: apple scab fungus; test: Test Example 13: apple scab, foliage application then inoculation; format: in vivo, Venturia inaequalis; conditions: apple seedling
# [5] = tested on: apple scab fungus; test: Test Example 8: apple scab, foliage application then inoculation; format: in vivo, Venturia inaequalis; conditions: apple seedling
# [6] = tested on: grape downy mildew fungus; test: Test Example 6: grape downy mildew, foliage application then inoculation; conditions: grape seedling
# Description: as §1
# [7] = tested on: tomato late blight fungus; format: in vivo, Phytophthora infestans; conditions: tomato seedling
# [8] = tested on: gray mold fungus; test: Test Example 11: cucumber gray mold, foliage application before inoculation; conditions: cucumber seedling
# Description: Each of plastic pots was filled with sandy loam and sown with cucumber (Sagamihanjiro), followed by growing in a greenhouse for 14 days. A wettable powder of test agents prepared according to Formulation Example 35 was diluted to a predetermined concentration with water, and foliage application of the dilution was carried out so as to adhere the dilution sufficiently to the surfaces of leaves of the grown cucumber young seedling. After air-drying, gray mold fungus was inoculated on the surfaces of leaves of the young seedling, and the young seedling was grown in the dark at 10° C. and a high humidity for 4 days, after which the infection rate (%) was investigated.
# [9] = tested on: gray mold fungi tolerant to benzimidazole type fungicidal compounds; test: Test Example 17: cucumber gray mold, benzimidazole-tolerant (resistant) fungus; conditions: cucumber seedling
# Description: (§2) Each of plastic pots was filled with sandy loam and sown with cucumber (Sagamihanjiro), followed by growing in a greenhouse for 14 days. A wettable powder of test agents prepared according to Formulation Example 59 was diluted to a predetermined concentration with water, and foliage application of the dilution was carried out so as to adhere the dilution sufficiently to the surfaces of leaves of the grown cucumber young seedling. After air-drying, each of gray mold fungi sensitive and tolerant, respectively, to benzimidazole type fungicidal compounds was inoculated on the surfaces of leaves of the young seedling, and the young seedling was grown in the dark at 10° C. and a high humidity for 4 days, after which the infection rate (%) was investigated.
# [10] = tested on: grape downy mildew fungus; test: Test Example 7: grape downy mildew, foliage application then inoculation; conditions: grape seedling
# Description: as §1
# [11] = tested on: grape downy mildew fungus (Plasmopara viticola); test: Test Example 2: grape downy mildew, spray then inoculation, infection rate; format: in vivo; conditions: grape plant, 1 week at 24° C.
# Description: A grape plant (cultivar: Berry A) was planted in each pot and was sprayed with a sufficient volume of a dilution with a predetermined concentration of a wettable powder obtained according to Formulation Example 5, after the plant put out a fourth leaf.
# [12] = tested on: tomato late blight fungus (Phytophthora infestans); format: in vivo; conditions: tomato plant, 1 week at 24° C.
# [13] = tested on: tomato late blight fungus; format: in vivo, Phytophthora infestans; conditions: tomato seedling; remark: listed apart in the source
# [14] = tested on: tomato late blight fungus (Phytophthora infestans); format: in vivo; conditions: tomato plant, 1 week at 24° C.; remark: listed apart in the source
# [15] = tested on: gray mold fungus; test: Test Example 4: cucumber gray mold, foliage application after inoculation; conditions: cucumber seedling, applied after inoculation
# Description: Each of plastic pots was filled with sandy loam and sown with cucumber (Sagamihanjiro), followed by growing in a greenhouse for 14 days. Gray mold fungus was inoculated on the surfaces of leaves of the grown cucumber young seedling, and the young seedling was grown in the dark at 10° C. and a high humidity for 2 days and then at a temperature of 23° C. for 3 days. A wettable powder of test agents prepared according to Formulation Example 11 was diluted to a predetermined concentration with water, and foliage application of the dilution was carried out so as to adhere the dilution sufficiently to the surfaces of leaves of the cucumber young seedling. After the spraying, the young seedling was grown in the dark at 10° C. and a high humidity for 3 days, and then the infection rate (%) was investigated.
# [16] = tested on: gray mold fungi sensitive to benzimidazole type fungicidal compounds; test: Test Example 17: cucumber gray mold, benzimidazole-sensitive fungus; conditions: cucumber seedling
# Description: as §2
# [17] = tested on: gray mold fungus; test: Test Example 3: cucumber gray mold, foliage application before inoculation; conditions: cucumber seedling, applied before inoculation, 4 days
# Description: Each of plastic pots was filled with sandy loam and sown with cucumber (Sagamihanjiro), followed by growing in a greenhouse for 14 days. A wettable powder of test agents prepared according to Formulation Example 11 was diluted to a predetermined concentration with water, and foliage application of the dilution was carried out so as to adhere the dilution sufficiently to the surfaces of leaves of the grown cucumber young seedling. After air-drying, gray mold fungus was inoculated on the surfaces of leaves of the young seedling, and the young seedling was grown in the dark at 10° C. and a high humidity for 4 days, after which the infection rate (%) was investigated.
# [18] = tested on: grape powdery mildew fungus (Uncinula necator); test: Test Example 14: grape powdery mildew, spray then inoculation; format: in vivo; conditions: grape plant, 3 weeks at 24° C.
# [19] = tested on: grape powdery mildew fungus (Uncinula necator); test: Test Example 16: grape powdery mildew, spray then inoculation; format: in vivo; conditions: grape plant, 3 weeks at 24° C.
molecule,measurement,setting,value
"COC(=O)[C@H](C)N(C(=O)Cc1ccccc1)c1c(C)cccc1C [Benalaxyl, methyl N-(2,6-dimethylphenyl)-N-(phenylacetyl)alaninate]",Infection rate (%),[1]; 1 ppm,25%
"CCCCNC(=O)n1c(NC(=O)OC)nc2ccccc21 [Benomyl, methyl 1-(butylcarbamoyl)-2-benzimidazole-carbamate, reference compound]",Infection rate (%) Sensitive fungus,[2]; 10 ppm,20%
same,Infection rate (%) Resistant fungus,[3]; 10 ppm,100%
same,Infection rate (%),[4]; 20 ppm,25%
"O=C1C2CC=CCC2C(=O)N1SC(Cl)(Cl)Cl (stereo not drawn) [Captan, 1,2,3,6-tetrahydro-N-(trichloromethylthio)phthalimide, reference compound]",Infection rate (%),[5]; 300 ppm,20%
"N#Cc1c(Cl)c(Cl)c(Cl)c(C#N)c1Cl [Chlorothalonil, tetrachloroisophthalonitrile, reference compound]",Infection rate (%),[6]; 30 ppm,20%
same,Infection rate (%),[7]; 40 ppm,20%
"CON=C(C(=O)OC)c1ccccc1COc1ccccc1C [Compound (Ia), methyl α-methoxyimino-2-[(2-methylphenoxy)methyl]phenylacetate]",Infection rate (%),[8]; 10 ppm,30%
same,Infection rate (%),[6]; 5 ppm,20%
same,Infection rate (%) Resistant fungus,[9]; 10 ppm,30%
same,Infection rate (%),[10]; 10 ppm,20%
same,Infection rate (%),[11]; 10 ppm,30%
same,Infection rate (%),[12]; 10 ppm,25%
same,Infection rate (%) Sensitive fungus,[2]; 10 ppm,30%
same,Infection rate (%),[7]; 50 ppm,25%
same,Infection rate (%),[13]; 100 ppm,25%
same,Infection rate (%),[14]; 10 ppm,25%
same,Infection rate (%),[15]; 10 ppm,30%
same,Infection rate (%) Resistant fungus,[3]; 10 ppm,30%
same,Infection rate (%) Sensitive fungus,[16]; 10 ppm,30%
same,Infection rate (%),[1]; 20 ppm,25%
same,Infection rate (%),[17]; 10 ppm,30%
same,Infection rate (%),[18]; 1 ppm,20%
same,Infection rate (%),[19]; 10 ppm,30%
same,Infection rate (%),[5]; 0.8 ppm,20%
same,Infection rate (%),[4]; 1 ppm,20%
"CNC(=O)C(=NOC)c1ccccc1COc1cccc(Cl)c1 [Compound (Ic), N-methyl-α-methoxyimino-2-[(3-chlorophenoxy)methyl]phenylacetamide]",Infection rate (%),[8]; 200 ppm,20%
same,Infection rate (%),[6]; 5 ppm,25%
same,Infection rate (%) Resistant fungus,[9]; 200 ppm,20%
same,Infection rate (%),[10]; 10 ppm,25%
same,Infection rate (%),[11]; 10 ppm,25%
same,Infection rate (%),[12]; 10 ppm,25%
same,Infection rate (%) Sensitive fungus,[2]; 200 ppm,20%
same,Infection rate (%),[7]; 40 ppm,20%
same,Infection rate (%),[13]; 40 ppm,20%
same,Infection rate (%),[14]; 10 ppm,25%
same,Infection rate (%),[15]; 200 ppm,20%
same,Infection rate (%) Resistant fungus,[3]; 200 ppm,20%
same,Infection rate (%) Sensitive fungus,[16]; 200 ppm,20%
same,Infection rate (%),[1]; 100 ppm,20%
same,Infection rate (%),[17]; 200 ppm,20%
same,Infection rate (%),[18]; 1 ppm,20%
same,Infection rate (%),[19]; 10 ppm,25%
same,Infection rate (%),[5]; 5 ppm,25%
same,Infection rate (%),[4]; 1 ppm,30%
"CNC(=O)C(=NOC)c1ccccc1COc1ccc(Cl)cc1Cl [Compound (Id), N-methyl-α-methoxyimino-2-[(2,4-dichlorophenoxy)methyl]phenylacetamide]",Infection rate (%),[8]; 200 ppm,20%
same,Infection rate (%),[6]; 5 ppm,25%
same,Infection rate (%) Resistant fungus,[9]; 200 ppm,20%
same,Infection rate (%),[10]; 10 ppm,20%
same,Infection rate (%),[11]; 10 ppm,25%
same,Infection rate (%),[12]; 10 ppm,25%
same,Infection rate (%) Sensitive fungus,[2]; 200 ppm,20%
same,Infection rate (%),[7]; 40 ppm,20%
same,Infection rate (%),[13]; 40 ppm,20%
same,Infection rate (%),[14]; 10 ppm,25%
same,Infection rate (%),[15]; 200 ppm,20%
same,Infection rate (%) Resistant fungus,[3]; 200 ppm,20%
same,Infection rate (%) Sensitive fungus,[16]; 200 ppm,20%
same,Infection rate (%),[1]; 40 ppm,20%
same,Infection rate (%),[17]; 200 ppm,20%
same,Infection rate (%),[18]; 1 ppm,25%
same,Infection rate (%),[19]; 10 ppm,25%
same,Infection rate (%),[5]; 5 ppm,25%
same,Infection rate (%),[4]; 5 ppm,20%
"[Cl-].[Cu+2].[Cu+2].[OH-].[OH-].[OH-] [Copper oxychloride, reference compound]",Infection rate (%),[12]; 500 ppm,25%
same,Infection rate (%),[19]; 500 ppm,30%
"[Cu+2].[O-]c1cccc2cccnc12.[O-]c1cccc2cccnc12 [Copper oxyquinolinolate, copper oxyquinolinolate (8-hydroxyquinolinate), reference compound]",Infection rate (%),[12]; 50 ppm,25%
same,Infection rate (%),[19]; 200 ppm,25%
"CCNC(=O)NC(=O)C(C#N)=NOC [Cymoxanil, 2-cyano-N-[ethylaminocarbonyl]-2-(methoxyimino)acetamide]",Infection rate (%),[1]; 40 ppm,20%
"CCOc1ccc(NC(=O)OC(C)C)cc1OCC [Diethofencarb, isopropyl 3,4-diethoxyphenylcarbamate, reference compound]",Infection rate (%) Resistant fungus,[9]; 10 ppm,20%
same,Infection rate (%) Sensitive fungus,[16]; 10 ppm,100%
"O=[N+]([O-])c1cc(C(F)(F)F)c(Cl)c([N+](=O)[O-])c1Nc1ncc(C(F)(F)F)cc1Cl [Fluazinam, 3-chloro-N-(3-chloro-5-trifluoromethyl-2-pyridyl)-α,α,α-trifluoro-2,6-dinitro-p-toluidine, reference compound]",Infection rate (%),[8]; 1 ppm,25%
"N#Cc1c[nH]cc1-c1cccc2c1OC(F)(F)O2 [Fludioxonil, 4-(2,2-difluoro-1,3-benzodioxol-4-yl)-1H-pyrrole-3-carbonitrile, reference compound]",Infection rate (%),[8]; 0.5 ppm,20%
"O=C1c2ccccc2C(=O)N1SC(Cl)(Cl)Cl [Folpet, N-(trichloromethylthio)phthalimide, reference compound]",Infection rate (%),[10]; 200 ppm,20%
"CCO[PH](=O)O [Fosetyl aluminum, ethyl hydrogenphosphonate]",Infection rate (%),[1]; 100 ppm,25%
"CC#Cc1cc(C)nc(Nc2ccccc2)n1 [Mepanipyrim, 2-anilino-4-methyl-6-(1-propynyl)pyrimidine, reference compound]",Infection rate (%),[8]; 5 ppm,20%
"COCC(=O)N(c1c(C)cccc1C)[C@@H](C)C(=O)OC [Metalaxyl, methyl N-(2,6-dimethylphenyl)-N-(methoxyacetyl)-alaninate, reference compound]",Infection rate (%),[13]; 5 ppm,20%
same,Infection rate (%),[1]; 1 ppm,20%
"COCC(=O)N(c1c(C)cccc1C)N1CCOC1=O [Oxadixyl, 2-methoxy-N-(2-oxo-1,3-oxazolidin-3-yl)aceto-2′,6′-xylidide]",Infection rate (%),[1]; 5 ppm,20%
"CC12CC1(C)C(=O)N(c1cc(Cl)cc(Cl)c1)C2=O (stereo not drawn) [Procymidone, N-(3,5-dichlorophenyl)-1,2-dimethylcyclopropane-1,2-dicarboxyimide, reference compound]",Infection rate (%),[15]; 10 ppm,25%
same,Infection rate (%),[17]; 10 ppm,25%
"Cc1cc(C)nc(Nc2ccccc2)n1 [Pyrimetanil, 2-anilino-4,6-dimethylpyrimidine, reference compound]",Infection rate (%),[8]; 10 ppm,20%
"S1SSSSSSS1 [Sulfur, sulfur, reference compound]",Infection rate (%),[18]; 500 ppm,20%
"c1ccc2[nH]c(-c3cscn3)nc2c1 [Thiabendazole, 2-(4′-thiazolyl)benzimidazole, reference compound]",Infection rate (%) Sensitive fungus,[2]; 30 ppm,25%
same,Infection rate (%) Resistant fungus,[3]; 30 ppm,100%
"COC(=O)NC(=S)Nc1ccccc1NC(=S)NC(=O)OC [Thiophanate-methyl, 1,2-bis(3-methoxycarbonyl-2-thioureido)benzene, reference compound]",Infection rate (%) Sensitive fungus,[2]; 10 ppm,25%
same,Infection rate (%) Resistant fungus,[3]; 10 ppm,100%
same,Infection rate (%),[4]; 10 ppm,20%
Mancozeb [reference compound],Infection rate (%),[11]; 50 ppm,25%
same,Infection rate (%),[14]; 50 ppm,25%
